Source: patent publication US8092829B2, “Use of R-arylpropionic acids for treating illnesses with a rheumatic nature” (Paz Arzneimittelentwicklungsgesellschaft mbH, priority 2000, dated 2012)

Tested on: AP-1
Assay: Inhibition of AP-1 activation (AP-1 DNA binding activity by EMSA) in LPS-stimulated RAW 264-7 macrophages
Type: cell-based, murine
Settings: LPS-stimulated RAW 264-7 cells, nuclear extract; for AP-1 DNA binding at the highest concentration: 1000 μM (tested 0.1-1000 μM)
Experimental: The inhibition of the activation of AP-1 was shown with a pharmacological model. For this purpose, a cell culture of the murine macrophage cell line RAW 264-7 was taken and stimulated with 10 mg/ml LPS for 1 hour in the absence or in the presence of flurbiprofen. R-flurbiprofen (0.1, 1, 10, 100 and 1000 μM) and S-flurbiprofen (0.1, 1, 10, 100 and 1000 μM) were dissolved in phosphate buffer, added to the cell cultures 30 minutes before the LPS treatment. After conclusion of the treatment, the cells were harvested and worked up in a cytosol fraction and a cell nucleus extract. The cell nucleus extract ([…]) was incubated for 30 minutes with the AP-1-specific oligonucleotide 5′-CGCTT GATGACTCAGCCGGAA-3′ which is terminally labelled with ^32P ATP. From the incubation medium was separated the nucleus protein DNA complexes from the non-bound DNA by electro-phoresis (electrophoretic mobile shift assay EMSA). After drying of the gels, these were visualised by means of autoradiography.

Structure (SMILES) | AP-1 DNA binding at the highest concentration | inhibition of AP-1 DNA binding (10-1000 μM, added 30 minutes before LPS)
C[C@@H](C(=O)O)c1ccc(-c2ccccc2)c(F)c1 [R-flurbiprofen] | completely suppressed | inhibits the AP-1 DNA binding dosage-dependent
C[C@H](C(=O)O)c1ccc(-c2ccccc2)c(F)c1 [S-flurbiprofen, reference compound] | a reduction was found only in the case of the highest concentration | 
